Results as given in article PMC9481151, “Discovery of new symmetrical and asymmetrical nitrile-containing 1,4-dihydropyridine derivatives as dual kinases and P-glycoprotein inhibitors: synthesis, in vitro assays, and in silico studies” (Journal of Enzyme Inhibition and Medicinal Chemistry, 2022).
Values joined by “and” are separate entries in the source; they are usually repeats but may differ in a detail not shown here. Identical values can stand only once.

What was measured:
[1] = test system: SK-MEL-28; experiment: NCI single dose (10 µM) SRB screen; format: cell-based, human; conditions: melanoma, 48 h
[2] = test system: MALME-3M; experiment: NCI single dose (10 µM) SRB screen; format: cell-based, human; conditions: melanoma, 48 h
[3] = test system: A498; experiment: NCI single dose (10 µM) SRB screen; format: cell-based, human; conditions: renal cancer, 48 h
[4] = test system: OVCAR-4; experiment: NCI single dose (10 µM) SRB screen; format: cell-based, human; conditions: ovarian cancer, 48 h
[5] = test system: MDA-MB-468; experiment: NCI single dose (10 µM) SRB screen; format: cell-based, human; conditions: breast cancer, 48 h
[6] = test system: SN12C; experiment: NCI single dose (10 µM) SRB screen; format: cell-based, human; conditions: renal cancer, 48 h
[7] = test system: HCC-2998; experiment: NCI single dose (10 µM) SRB screen; format: cell-based, human; conditions: colon cancer, 48 h
[8] = test system: M14; experiment: NCI single dose (10 µM) SRB screen; format: cell-based, human; conditions: melanoma, 48 h
[9] = test system: OVCAR-3; experiment: NCI single dose (10 µM) SRB screen; format: cell-based, human; conditions: ovarian cancer, 48 h
[10] = test system: MDA-MB-435; experiment: NCI single dose (10 µM) SRB screen; format: cell-based, human; conditions: melanoma, 48 h
[11] = test system: Bacillus subtilis; experiment: Agar well diffusion method
[12] = test system: UO-31; experiment: NCI single dose (10 µM) SRB screen; format: cell-based, human; conditions: renal cancer, 48 h
[13] = test system: BT-549; experiment: NCI single dose (10 µM) SRB screen; format: cell-based, human; conditions: breast cancer, 48 h
[14] = test system: Staphylococcus aureus; experiment: Agar well diffusion method
[15] = test system: UACC-257; experiment: NCI single dose (10 µM) SRB screen; format: cell-based, human; conditions: melanoma, 48 h
[16] = test system: PC-3; experiment: NCI single dose (10 µM) SRB screen; format: cell-based, human; conditions: prostate cancer, 48 h
[17] = test system: Pseudomonas aeruginosa; experiment: Agar well diffusion method
[18] = test system: SF-295; experiment: NCI single dose (10 µM) SRB screen; format: cell-based, human; conditions: CNS cancer, 48 h
[19] = test system: 786-0; experiment: NCI single dose (10 µM) SRB screen; format: cell-based, human; conditions: renal cancer, 48 h
[20] = test system: SF-539; experiment: NCI single dose (10 µM) SRB screen; format: cell-based, human; conditions: CNS cancer, 48 h
[21] = test system: U251; experiment: NCI single dose (10 µM) SRB screen; format: cell-based, human; conditions: CNS cancer, 48 h
[22] = test system: HCT-15; experiment: NCI single dose (10 µM) SRB screen; format: cell-based, human; conditions: colon cancer, 48 h
[23] = test system: K-562; experiment: NCI single dose (10 µM) SRB screen; format: cell-based, human; conditions: leukaemia, 48 h
[24] = test system: RPMI-8226; experiment: NCI single dose (10 µM) SRB screen; format: cell-based, human; conditions: leukaemia, 48 h
[25] = test system: A549/ATCC; experiment: NCI single dose (10 µM) SRB screen; format: cell-based, human; conditions: non-small cell lung cancer, 48 h
[26] = test system: HOP-92; experiment: NCI single dose (10 µM) SRB screen; format: cell-based, human; conditions: non-small cell lung cancer, 48 h
[27] = test system: SK-OV-3; experiment: NCI single dose (10 µM) SRB screen; format: cell-based, human; conditions: ovarian cancer, 48 h
[28] = test system: LOX IMVI; experiment: NCI single dose (10 µM) SRB screen; format: cell-based, human; conditions: melanoma, 48 h
[29] = test system: HOP-62; experiment: NCI single dose (10 µM) SRB screen; format: cell-based, human; conditions: non-small cell lung cancer, 48 h
[30] = test system: HCT-116; experiment: NCI single dose (10 µM) SRB screen; format: cell-based, human; conditions: colon cancer, 48 h
[31] = test system: EKVX; experiment: NCI single dose (10 µM) SRB screen; format: cell-based, human; conditions: non-small cell lung cancer, 48 h
[32] = test system: CCRF-CEM; experiment: NCI single dose (10 µM) SRB screen; format: cell-based, human; conditions: leukaemia, 48 h
[33] = test system: OVCAR-8; experiment: NCI single dose (10 µM) SRB screen; format: cell-based, human; conditions: ovarian cancer, 48 h
[34] = test system: NCI-H322M; experiment: NCI single dose (10 µM) SRB screen; format: cell-based; conditions: non-small cell lung cancer, 48 h
[35] = test system: UACC-62; experiment: NCI single dose (10 µM) SRB screen; format: cell-based, human; conditions: melanoma, 48 h
[36] = test system: SNB-75; experiment: NCI single dose (10 µM) SRB screen; format: cell-based, human; conditions: CNS cancer, 48 h
[37] = test system: NCI-H23; experiment: NCI single dose (10 µM) SRB screen; format: cell-based, human; conditions: non-small cell lung cancer, 48 h
[38] = test system: T-47D; experiment: NCI single dose (10 µM) SRB screen; format: cell-based, human; conditions: breast cancer, 48 h
[39] = test system: SF-268; experiment: NCI single dose (10 µM) SRB screen; format: cell-based, human; conditions: CNS cancer, 48 h
[40] = test system: NCI-H522; experiment: NCI single dose (10 µM) SRB screen; format: cell-based, human; conditions: non-small cell lung cancer, 48 h
[41] = test system: HL-60(TB); experiment: NCI single dose (10 µM) SRB screen; format: cell-based, human; conditions: leukaemia, 48 h
[42] = test system: NCI/ADR-RES; experiment: NCI single dose (10 µM) SRB screen; format: cell-based, human; conditions: ovarian cancer, 48 h
[43] = test system: SR; experiment: NCI single dose (10 µM) SRB screen; format: cell-based, human; conditions: leukaemia, 48 h
[44] = test system: MCF7; experiment: NCI single dose (10 µM) SRB screen; format: cell-based, human; conditions: breast cancer, 48 h
[45] = test system: MOLT-4; experiment: NCI single dose (10 µM) SRB screen; format: cell-based, human; conditions: leukaemia, 48 h
[46] = test system: NCI-H460; experiment: NCI single dose (10 µM) SRB screen; format: cell-based, human; conditions: non-small cell lung cancer, 48 h
[47] = test system: RXF 393; experiment: NCI single dose (10 µM) SRB screen; format: cell-based, human; conditions: renal cancer, 48 h
[48] = test system: SW-620; experiment: NCI single dose (10 µM) SRB screen; format: cell-based, human; conditions: colon cancer, 48 h
[49] = test system: MDA-MB-231; experiment: NCI single dose (10 µM) SRB screen; format: cell-based, human; conditions: breast cancer, 48 h
[50] = test system: NCI 60 cancer cell lines; experiment: NCI single dose (10 µM) SRB screen, mean over panel; format: cell-based, human; conditions: mean over 60 cell lines, 48 h
[51] = test system: SNB-19; experiment: NCI single dose (10 µM) SRB screen; format: cell-based, human; conditions: CNS cancer, 48 h
[52] = test system: COLO 205; experiment: NCI single dose (10 µM) SRB screen; format: cell-based, human; conditions: colon cancer, 48 h
[53] = test system: DU-145; experiment: NCI single dose (10 µM) SRB screen; format: cell-based, human; conditions: prostate cancer, 48 h

COC(=O)C1=C(C)NC(C)=C(C(=O)OC(C)C)C1c1cccc(C#N)c1 (racemic) [Compound 2a, (±)-3-Isopropyl 5-methyl 4-(3-cyanophenyl)-2,6-dimethyl-1,4-dihydropyridine-3,5-dicarboxylate]
GI% SK-MEL-28 [1]: – (Only GI% ≥ 10 are shown) | GI% MALME-3M [2]: – (Only GI% ≥ 10 are shown) | GI% A498 [3]: 11% | GI% OVCAR-4 [4]: – (Only GI% ≥ 10 are shown) | GI% MDA-MB-468 [5]: – (Only GI% ≥ 10 are shown) | GI% SN12C [6]: – (Only GI% ≥ 10 are shown) | GI% HCC-2998 [7]: – (Only GI% ≥ 10 are shown) | GI% M14 [8]: – (Only GI% ≥ 10 are shown) | GI% OVCAR-3 [9]: – (Only GI% ≥ 10 are shown) | GI% MDA-MB-435 [10]: – (Only GI% ≥ 10 are shown) | zone of inhibition at 1000 µg/mL ([11]; Bacillus subtilis, 24 h, read-out: Diameter of inhibition zone, B. subtilis): 17 mm | % activity index, B. subtilis ([11]; relative to ciprofloxacin): 73% and 73.9% | GI% UO-31 [12]: – (Only GI% ≥ 10 are shown) | GI% BT-549 [13]: – (Only GI% ≥ 10 are shown) | zone of inhibition at 1000 µg/mL ([14]; Staphylococcus aureus, 24 h, read-out: Diameter of inhibition zone, S. aureus): 20 mm | % activity index, S. aureus ([14]; relative to ciprofloxacin): 83% and 83.3% | GI% UACC-257 [15]: – (Only GI% ≥ 10 are shown) | GI% PC-3 [16]: 16% | zone of inhibition at 1000 µg/mL ([17]; Pseudomonas aeruginosa, 24 h, read-out: Diameter of inhibition zone, P. aeruginosa): 19 mm | % activity index, P. aeruginosa ([17]; relative to ciprofloxacin): 82.6% | GI% SF-295 [18]: – (Only GI% ≥ 10 are shown) | GI% 786-0 [19]: – (Only GI% ≥ 10 are shown) | GI% SF-539 [20]: – (Only GI% ≥ 10 are shown) | GI% U251 [21]: – (Only GI% ≥ 10 are shown) | GI% HCT-15 [22]: – (Only GI% ≥ 10 are shown) | GI% K-562 [23]: 16% | GI% RPMI-8226 [24]: – (Only GI% ≥ 10 are shown) | GI% A549/ATCC [25]: – (Only GI% ≥ 10 are shown) | GI% HOP-92 [26]: – (Only GI% ≥ 10 are shown) | GI% SK-OV-3 [27]: – (Only GI% ≥ 10 are shown) | GI% LOX IMVI [28]: – (Only GI% ≥ 10 are shown) | GI% HOP-62 [29]: – (Only GI% ≥ 10 are shown) | GI% HCT-116 [30]: – (Only GI% ≥ 10 are shown) | GI% EKVX [31]: – (Only GI% ≥ 10 are shown) | GI% CCRF-CEM [32]: – (Only GI% ≥ 10 are shown) | GI% OVCAR-8 [33]: – (Only GI% ≥ 10 are shown) | GI% NCI-H322M [34]: – (Only GI% ≥ 10 are shown) | GI% UACC-62 [35]: – (Only GI% ≥ 10 are shown) | GI% SNB-75 [36]: – (Only GI% ≥ 10 are shown) | GI% NCI-H23 [37]: – (Only GI% ≥ 10 are shown) | GI% T-47D [38]: – (Only GI% ≥ 10 are shown) | GI% SF-268 [39]: – (Only GI% ≥ 10 are shown) | GI% NCI-H522 [40]: 14% | GI% HL-60(TB) [41]: 23% | GI% NCI/ADR-RES [42]: – (Only GI% ≥ 10 are shown) | GI% SR [43]: – (Only GI% ≥ 10 are shown) | GI% MCF7 [44]: – (Only GI% ≥ 10 are shown) | GI% MOLT-4 [45]: 16% | GI% NCI-H460 [46]: – (Only GI% ≥ 10 are shown) | GI% RXF 393 [47]: – (Only GI% ≥ 10 are shown) | GI% SW-620 [48]: – (Only GI% ≥ 10 are shown) | GI% MDA-MB-231 [49]: – (Only GI% ≥ 10 are shown) | Mean GI% [50]: 0% | GI% SNB-19 [51]: – (Only GI% ≥ 10 are shown) | GI% COLO 205 [52]: – (Only GI% ≥ 10 are shown) | GI% DU-145 [53]: – (Only GI% ≥ 10 are shown)
